The subject of assay [1] is COS. The assay is described as follows: (§1) Inhibition of recombinant ECE expressed in african green monkey COS cells assessed as endothelin formation by EIA assay. It counts as cell-based.
A short description of assay [2]: as §1. The assay is classed as cell-based.

Molecules are shown by their SMILES. Activity calls are given as the source filed them. The rule behind the calls is not given here.

In the case of `O=C(NCCSSCCNC(=O)/C(Cc1ccc(Br)c(OS(=O)(=O)O)c1)=N/O)/C(Cc1ccc(OS(=O)(=O)O)c(Br)c1)=N/O`, the result in assay [1] was Active. Same read-out and setting: under `C[C@H](CC[C@H](C)C(C)(C)C)[C@H]1CC[C@H]2[C@@H]3C[C@H](OS(=O)(=O)O)[C@H]4C[C@H](OS(=O)(=O)O)[C@@H](OS(=O)(=O)O)C[C@]4(C)[C@H]3CC[C@]12C` stands “Active”. With `C=CCCC[C@@H](C)[C@H]1CC[C@H]2[C@@H]3CC[C@H]4C[C@H](OS(=O)(=O)O)[C@@H](OS(=O)(=O)O)C[C@]4(C)[C@H]3CC[C@]12C` [HALISTANOL DISULFATE B], in assay [2], the IC50 worked out at 2.1 µM.

Regarding `C=CCCC[C@@H](C)[C@H]1CC[C@H]2[C@@H]3CC[C@H]4C[C@H](O)[C@@H](O)C[C@]4(C)[C@H]3CC[C@]12C`, the result in assay [1] was inactive. On the same count and under the same terms, the entry for `O=C(NCCSSCCNC(=O)/C(Cc1cccc(OS(=O)(=O)O)c1Br)=N/O)/C(Cc1cc(Br)c(O)c(-c2ccc(C/C(=N\O)C(=O)NCCSSCCNC(=O)/C(Cc3ccc(OS(=O)(=O)O)c(Br)c3)=N/O)c(Br)c2O)c1)=N/O` is “Active”.

Broadly, the IC50 is the concentration at which inhibition is half-maximal.
